Results: ChEMBL document CHEMBL1153009, “Synthesis and evaluation of structurally constrained imidazolidin derivatives as potent dipeptidyl peptidase IV inhibitors” (Eur J Med Chem, 2009)

Assays:
Dipeptidyl peptidase 9 = Dipeptidyl peptidase 9 (Homo sapiens, UniProt Q86TI2)
Dipeptidyl peptidase 2 = Dipeptidyl peptidase 2 (Homo sapiens, UniProt Q9UHL4); assay: Inhibition of human recombinant DPP7 expressed in baculovirus-infected Sf9 cells by fluorescence plate reader method

Sequence of Dipeptidyl peptidase 9 (Q86TI2 whole entry): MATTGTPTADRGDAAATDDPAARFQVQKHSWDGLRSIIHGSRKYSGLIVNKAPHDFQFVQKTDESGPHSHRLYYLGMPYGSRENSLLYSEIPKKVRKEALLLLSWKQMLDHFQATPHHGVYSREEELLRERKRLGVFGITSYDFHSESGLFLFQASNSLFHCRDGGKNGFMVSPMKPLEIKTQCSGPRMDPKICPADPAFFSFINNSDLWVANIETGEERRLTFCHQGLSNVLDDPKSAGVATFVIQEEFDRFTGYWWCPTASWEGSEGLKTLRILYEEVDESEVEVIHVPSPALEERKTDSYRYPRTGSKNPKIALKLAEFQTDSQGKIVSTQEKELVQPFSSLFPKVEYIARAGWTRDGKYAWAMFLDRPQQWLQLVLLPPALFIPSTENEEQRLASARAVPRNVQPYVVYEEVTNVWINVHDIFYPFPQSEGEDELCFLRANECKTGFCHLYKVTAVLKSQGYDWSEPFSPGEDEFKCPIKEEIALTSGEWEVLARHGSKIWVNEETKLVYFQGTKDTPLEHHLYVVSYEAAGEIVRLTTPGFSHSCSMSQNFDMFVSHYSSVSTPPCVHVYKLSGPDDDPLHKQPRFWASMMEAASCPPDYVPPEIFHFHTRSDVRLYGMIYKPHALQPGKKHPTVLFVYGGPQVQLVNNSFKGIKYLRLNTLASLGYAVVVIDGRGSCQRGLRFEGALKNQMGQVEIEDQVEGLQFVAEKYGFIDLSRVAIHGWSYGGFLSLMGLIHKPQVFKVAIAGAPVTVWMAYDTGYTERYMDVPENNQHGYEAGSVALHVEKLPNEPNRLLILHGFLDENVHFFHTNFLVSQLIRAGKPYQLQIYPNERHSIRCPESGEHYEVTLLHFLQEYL

IC50 (Dipeptidyl peptidase 9): > 100 µM | IC50 (Dipeptidyl peptidase 2): > 100 µM
Compound: COc1ccc(N2CCN(CCNCC(=O)N3CCCC3C#N)C2=O)cc1OC (single isomer, unassigned)
